Assay results taken from publication PMC9542285, “Novel amides of mycophenolic acid and some heterocyclic derivatives as immunosuppressive agents” (Journal of Enzyme Inhibition and Medicinal Chemistry, 2022).
Where two headings read alike, the source gives them in different places.

Columns and labels:
PBMCs [1] = experiment: In vitro cytotoxicity assay with XTT dye, PBMCs; assay type: cell-based, human; conditions: Homo sapiens, PBMC, 72 h incubation then 24 h XTT, read-out: IC50 PBMCs (XTT test)
Procedure: (§1) Figure 2. Representative dose-response curve to determine the IC50 of MPA and A2. […] Next, plates were incubated for 24 h with XTT reagent. The conversion of water-soluble yellow tetrazolium XTT salt into orange formazan was monitored by measuring the optical density at 450 nm on microplate spectrophotometer. For XTT assay at least three experiments were performed and values are presented as mean ± SD.
(§2) The cytotoxic effect of derivatives of MPA was measured using in vitro 2,3-bis(2-methoxy-4-nitro-5-sulfophenyl)-2H-tetrazolium-5-carboxanilide (XTT)-based assay (Roche, Basel, Swiss). PBMCs suspended in complete X–VIVO20 medium and T-Jurkat cells suspended in complete RPMI-1640 medium were added on a 96-well plate at a concentration of 5 × 10^5 cells/50 µL/well. […] As a background control we used medium without cells, as a positive control we used cells untreated with compounds. After 48 h for T-Jurkat cells and 72 h for PBMCs of incubation in a humidified atmosphere with 5% CO2 at 37 °C, 50 µL of XTT reagent (freshly prepared according to the manufacturer’s procedure) was added to all samples. Plates were incubated for 24 h (5% CO2 at 37 °C). The conversion of water-soluble yellow tetrazolium XTT salt into orange formazan was monitored by measuring the optical density (OD) at 450 nm on Agilent BioTek Epoch Microplate Spectrophotometer (Agilent Technologies, Santa Clara, CA), with a background wavelength at 690 nm. […] Each sample was performed in triplicates.

T-Jurkat cell line = experiment: In vitro cytotoxicity assay with XTT dye, T-Jurkat; assay type: cell-based, human; conditions: Homo sapiens, 48 h incubation then 24 h XTT, read-out: IC50 T-Jurkat (XTT test)
Procedure: as §1, §2

T-Jurkat cells = experiment: Dye-based proliferation assay VPD450 (flow cytometry), T-Jurkat; assay type: cell-based, human; conditions: Homo sapiens, 48 h
Procedure: Figure 4. […] Cell proliferation was analysed using flow cytometry.

PBMCs [2] = experiment: VPD450 proliferation of PBMCs with or without GMP (IMPDH mechanism test); assay type: cell-based, human; conditions: PBMCs, 72 h
Procedure: According to reported experiment, suppression of cell proliferation caused by IMPDH inhibitors in the presence of guanosine source, e.g. gunosine monophosphate (GMP) is reversible.
Figure 5. […] Cell proliferation was analysed using flow cytometry.
Cells proliferation was analyzed using flow cytometry.
(1 picture or pasted object on this page, not shown here)

PBMCs [3] = conditions: read-out: EC50 PBMCs (VPD450 proliferation); PBMCs stimulated with anti-CD3/anti-CD28 beads, 72 h
Procedure: (§3) Cell proliferation was analysed using flow cytometry. The results are expressed as the mean ± SD.
(§4) PBMCs and T-Jurkat cells were washed twice with warm PBS (37 °C), suspended in fresh PBS at a final concentration of 10–30 × 10^6 cells/mL and labelled with 1 µL of VPD450 (BD Biosciences, Franklin Lakes, NJ) at 37 °C for 15 min. Each 5 min cells were vortexed to provide uniform staining[42]^,[43]. Subsequently, cells were washed with PBS and then with complete medium (X-VIVO20 for PBMCs and RPMI-1640 for T-Jurkat cells). After this step, cells were suspended in fresh complete medium, seeded on 96-well plates (1 × 10^6 cells/well). PBMCs were additionally stimulated with magnetic beads coated with anti-CD3 and anti-CD28 antibodies (Invitrogen, Carlsbad, CA) in 1:0.5 cell:bead ratio. Of 100 µL of examined derivatives of MPA were added to experimental wells to receive final concentrations: 100; 10; 1; 0.1; 0.01 µM. In parallel, stained and not stimulated cells, as well as stained and stimulated cells, were seeded in the same concentration as controls. After 48 h for T-Jurkat and 72 h for PBMCs, cells were analysed with flow cytometer LSRFortessa (BD Biosciences, Franklin Lakes, NJ) and Kaluza C Flow Cytometry Analysis Software (Beckman Coulter, Brea, CA). […] Cell viability was determined at the highest concentration of the tested compound. For this purpose, TC20 cell counter (Biorad) was used with trypan blue exclusion.

PBMCs [4] = experiment: cells; conditions: Homo sapiens, PBMC, 72 h, read-out: EC50 PBMCs (VPD450 proliferation), PBMCs stimulated with anti-CD3/anti-CD28 beads, 72 h
Procedure: as §3, §4

Compound: COc1c(C)c2c(c(O)c1C/C=C(\C)CCC(=O)Nc1nc3ccccc3o1)C(=O)OC2 [A2, N-(benzo[d]oxazol-2-yl) mycophenolate]
- IC50 (PBMCs [1]): 15.923 ± 0.009 µM
- IC50 (T-Jurkat cell line): 1.326 ± 0.002 µM
- EC50 (T-Jurkat cells): 0.85 ± 0.004 µM
- Effect of GMP addition on proliferation (PBMCs [2]; 50 µM GMP, MPA at 100, 10 and 1 µM, A2 at 100 and 10 µM): proliferation increases after the addition of GMP
- Mechanism of action (IMPDH inhibition, GMP reversal) (PBMCs [2]; with or without 50 µM GMP): consistent with that of MPA
- melting point: 175 to 177 °C
- EC50 (PBMCs [3]): 5.601 ± 0.022 µM
- EC50 (PBMCs [4]): 5.6 µM
